Measurements taken from BindingDB's records for doi:10.1111/cbdd.12324 (Y.B. Chavan College of Pharmacy, 2014).

Tests used:
[1] = biological target: T1, Prostaglandin G/H synthase 2 (Ovis aries, UniProt P79208); assay: Cyclooxygenase (COX) Inhibition Assay; conditions: 37 °C
T1 sequence (P79208 whole entry): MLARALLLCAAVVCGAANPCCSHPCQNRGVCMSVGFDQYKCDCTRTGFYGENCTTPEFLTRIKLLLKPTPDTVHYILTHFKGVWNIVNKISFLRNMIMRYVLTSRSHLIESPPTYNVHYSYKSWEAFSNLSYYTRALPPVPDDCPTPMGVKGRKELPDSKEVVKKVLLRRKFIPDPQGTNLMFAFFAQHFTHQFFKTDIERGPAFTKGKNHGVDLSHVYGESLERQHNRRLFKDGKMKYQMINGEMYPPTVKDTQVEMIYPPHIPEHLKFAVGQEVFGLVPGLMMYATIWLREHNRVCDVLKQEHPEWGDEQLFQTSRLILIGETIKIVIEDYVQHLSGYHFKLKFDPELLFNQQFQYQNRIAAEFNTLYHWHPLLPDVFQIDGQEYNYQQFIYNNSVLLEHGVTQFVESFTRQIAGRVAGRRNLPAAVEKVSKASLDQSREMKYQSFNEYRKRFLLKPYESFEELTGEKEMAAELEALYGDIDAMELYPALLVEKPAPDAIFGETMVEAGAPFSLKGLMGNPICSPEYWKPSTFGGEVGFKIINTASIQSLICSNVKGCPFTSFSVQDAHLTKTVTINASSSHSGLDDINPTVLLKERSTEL
Experimental: (§1) The COX-1/COX-2 inhibition assay was done using an enzyme immunoassay (EIA) kit. The reaction buffer (960 uL), containing 0.1 M Tris-HCl (pH 8.0), 5 mM EDTA and 2 mM phenol, with either COX-1 or COX-2 (10 uL) enzyme in the presence of heme (10 uL) was added 10 uL of various concentrations of test drug solutions (0.01, 0.1, 1, 10, 50, and 100 uM in a final volume of 1 mL). The reaction was incubated for 5 min at 37 uC, followed by the addition of 10 uL of AA (100 uM) solution. The reaction was stopped by the addition of 50 uL of 1M HCl after 2 min.

[2] = biological target: T2, Prostaglandin G/H synthase 1 (Ovis aries, UniProt P05979); assay: Cyclooxygenase (COX) Inhibition Assay; conditions: 37 °C
T2 sequence (P05979 whole entry): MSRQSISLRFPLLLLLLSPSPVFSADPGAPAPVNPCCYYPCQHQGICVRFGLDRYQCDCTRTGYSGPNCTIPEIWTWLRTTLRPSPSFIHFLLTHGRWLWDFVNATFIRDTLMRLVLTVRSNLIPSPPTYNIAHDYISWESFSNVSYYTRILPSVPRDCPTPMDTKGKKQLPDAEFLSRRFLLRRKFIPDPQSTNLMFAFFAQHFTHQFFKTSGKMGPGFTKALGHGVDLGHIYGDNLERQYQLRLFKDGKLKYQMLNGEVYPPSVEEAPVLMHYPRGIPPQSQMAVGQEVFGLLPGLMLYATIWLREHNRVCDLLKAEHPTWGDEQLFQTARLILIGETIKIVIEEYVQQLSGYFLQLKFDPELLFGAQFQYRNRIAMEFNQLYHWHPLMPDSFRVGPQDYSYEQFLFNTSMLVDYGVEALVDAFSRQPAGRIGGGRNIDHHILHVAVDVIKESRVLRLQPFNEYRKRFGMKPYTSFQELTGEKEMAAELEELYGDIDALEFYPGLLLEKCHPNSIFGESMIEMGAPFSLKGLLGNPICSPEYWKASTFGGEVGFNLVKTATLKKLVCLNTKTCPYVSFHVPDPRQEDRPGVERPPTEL
Experimental: as §1

SMILES | IC50 [1] [µM] | IC50 [2] [µM]
Cc1[nH]n(-c2ccccc2)c(=O)c1CNC(=O)Nc1ccc(Cl)cc1 [1-(4-chlorophenyl)-3-[(3-methyl-5-oxo-1-phenyl-4,5-dihydro-1H-pyrazol-4-yl)methyl]urea (5b)] | > 100 | > 100
Cc1[nH]n(-c2ccccc2)c(=O)c1CN=C(N)N [1-((3-methyl-5-oxo-1-phenyl-4,5-dihydro-1H-pyrazol-4-yl)methyl)guanidine (5e)] | 50.7 | > 100
Cc1[nH]n(-c2ccccc2)c(=O)c1CNC(=S)Nc1ccccc1 [1-[(3-methyl-5-oxo-1-phenyl-4,5-dihydro-1H-pyrazol-4-yl)methyl]-3-phenylthiourea (5d)] | 0.2 | 80
Cc1[nH]n(-c2ccccc2)c(=O)c1CNC(N)=S [1-[(3-methyl-5-oxo-1-phenyl-4,5-dihydro-1H-pyrazol-4-yl)methyl]thiourea (5c)] | 85 | > 100
Cc1[nH]n(-c2ccccc2)c(=O)c1CNC(N)=O [1-[(3-methyl-5-oxo-1-phenyl-4,5-dihydro-1H-pyrazol-4-yl)methyl]urea (5a)] | 2.3 | > 100

More lines, now with the values ahead:

IC50 [1] [µM] | IC50 [2] [µM] | SMILES
1 | > 100 | Cc1[nH]n(-c2ccccc2)c(=O)c1CNc1ccc(S(N)(=O)=O)cc1 [4-{[(3-methyl-5-oxo-1-phenyl-4,5-dihydro-1H-pyrazol-4-yl)methyl]amino} benzene sulfonamide (5f)]
35 | > 100 | Cc1cc(=O)n(-c2ccccc2)[nH]1 [MLS000069602]
> 100 | > 100 | Cc1[nH]n(-c2ccccc2)c(=O)c1CNC(=O)NN [N-[(3-methyl-5-oxo-1-phenyl-4,5-dihydro-1H-pyrazol-4yl)methyl] hydrazine carboxamide (5g)]
